Measurements from patent US10105357B2, “Indication of antibiotic drugs for preparation of cancer inhibition pharmaceutical composition” (LAUNX BIOMEDICAL CO., LTD., priority 2014, dated 2018).
Structures can show the parent of a compound that is named as a salt. Where two headings read alike, the source gives them in different places.

Key:
Type in all cases: cell-based, human
[1] = test system: LoVo (Colorectal Adenocarcinoma); assay: Cell viability analysis, colon cancer LoVo; settings: for viability at 10 µM: Homo sapiens, LoVo, 72 h, read-out: cell viability (survival rate), LoVo, drug 10 μM, 72 hours, WST-1, OD450 nm; for cell viability (survival rate), LoVo: drug 10 μM, 72 hours, WST-1, OD450 nm
[2] = test system: HI650 (Lung Adenocarcinoma); assay: Cell viability analysis, lung cancer HI650; settings: for viability at 10 µM: Homo sapiens, NCI-H1650, 72 h
[3] = test system: A549 (Lung Adenocarcinoma); assay: Cell viability analysis, lung cancer A549; settings: for viability at 10 µM: Homo sapiens, A549, 72 h
[4] = test system: MKN-45 (Gastric Adenocarcinoma); assay: Cell viability analysis, gastric cancer MKN-45; settings: for viability at 10 µM: Homo sapiens, MKN-45, 72 h
[5] = test system: A375 (Amelanotic Melanoma); assay: Cell viability analysis, skin cancer A375; settings: for viability at 10 µM: Homo sapiens, A-375, 72 h
[6] = test system: HL-60 (Acute Promyelocytic Leukemia); assay: Cell viability analysis, leukemia HL-60; settings: for viability at 10 µM: Homo sapiens, HL-60, 72 h
[7] = test system: HeLa (Cervix Adenocarcinoma); assay: Cell viability analysis, cervical cancer HeLa; settings: for viability at 10 µM: Homo sapiens, HeLa, 72 h
[8] = test system: HepG2 (Hepatocellular Carcinoma); assay: Cell viability analysis, hepatic cancer HepG2; settings: for viability at 10 µM: Homo sapiens, HepG2, 72 h
[9] = test system: MCF7 (Mammary Gland, Adenocarcinoma); assay: Cell viability analysis, breast cancer MCF7; settings: for viability at 10 µM: Homo sapiens, MCF7, 72 h
[10] = test system: TSGH-8301 (Urinary Bladder Carcinoma); assay: Cell viability analysis, bladder cancer TSGH-8301; settings: for viability at 10 µM: Homo sapiens, 72 h
[11] = test system: PC3 (p53−) (Prostate Adenocarcinoma); assay: Cell viability analysis, prostate cancer PC3; settings: for viability at 10 µM: Homo sapiens, 72 h
[12] = test system: AGS (Gastric Adenocarcinoma); assay: Cell viability analysis, gastric cancer AGS; settings: for viability at 10 µM: Homo sapiens, 72 h
[13] = drug 10 μM, 72 hours, WST-1, OD450 nm, read-out: cell viability (survival rate), H1650
[14] = drug 10 μM, 72 hours, WST-1, OD450 nm, read-out: cell viability (survival rate), A549
[15] = drug 10 μM, 72 hours, WST-1, OD450 nm, read-out: cell viability (survival rate), MKN-45
[16] = drug 10 μM, 72 hours, WST-1, OD450 nm, read-out: cell viability (survival rate), A375
[17] = drug 10 μM, 72 hours, WST-1, OD450 nm, read-out: cell viability (survival rate), HL-60
[18] = drug 10 μM, 72 hours, WST-1, OD450 nm, read-out: cell viability (survival rate), HeLa
[19] = drug 10 μM, 72 hours, WST-1, OD450 nm, read-out: cell viability (survival rate), HepG2
[20] = drug 10 μM, 72 hours, WST-1, OD450 nm, read-out: cell viability (survival rate), MCF7
[21] = drug 10 μM, 72 hours, WST-1, OD450 nm, read-out: cell viability (survival rate), TSGH
[22] = drug 10 μM, 72 hours, WST-1, OD450 nm, read-out: cell viability (survival rate), PC3
[23] = drug 10 μM, 72 hours, WST-1, OD450 nm, read-out: cell viability (survival rate), AGS
[24] = drug 10 μM, 72 hours, WST-1, OD450 nm
[25] = read-out: cell viability (survival rate), H1650, drug 10 μM, 72 hours, WST-1, OD450 nm
[26] = read-out: cell viability (survival rate), A549, drug 10 μM, 72 hours, WST-1, OD450 nm
[27] = read-out: cell viability (survival rate), MKN-45, drug 10 μM, 72 hours, WST-1, OD450 nm
[28] = read-out: cell viability (survival rate), A375, drug 10 μM, 72 hours, WST-1, OD450 nm
[29] = read-out: cell viability (survival rate), HL-60, drug 10 μM, 72 hours, WST-1, OD450 nm
[30] = read-out: cell viability (survival rate), HeLa, drug 10 μM, 72 hours, WST-1, OD450 nm
[31] = read-out: cell viability (survival rate), HepG2, drug 10 μM, 72 hours, WST-1, OD450 nm
[32] = read-out: cell viability (survival rate), MCF7, drug 10 μM, 72 hours, WST-1, OD450 nm
[33] = read-out: cell viability (survival rate), TSGH, drug 10 μM, 72 hours, WST-1, OD450 nm
[34] = read-out: cell viability (survival rate), PC3, drug 10 μM, 72 hours, WST-1, OD450 nm
[35] = read-out: cell viability (survival rate), AGS, drug 10 μM, 72 hours, WST-1, OD450 nm

Work on Nc1nc(NC2CC2)c2ncn([C@H]3C=C[C@@H](CO)C3)c2n1 [Abacavir sulfate] yielded a viability at 10 µM [1] of 100%, a viability at 10 µM [2, 13] of 67% and a viability at 10 µM [3, 14] of 87%. For the same compound, the viability at 10 µM [4, 15] was 94.6%, the viability at 10 µM [5, 16] was 57.2% and the viability at 10 µM [6, 17] was 108%. For the same compound, the viability at 10 µM [7, 18] was 84.2%, the viability at 10 µM [8, 19] was 82.6% and the viability at 10 µM [9, 20] was 79.6%. It also gave a viability at 10 µM [10, 21] of 148%, a viability at 10 µM [11, 22] of 76% and a viability at 10 µM [12, 23] of 97.1%.

In the case of NC(=O)c1cnccn1 [Pyrazinamide], the viability at 10 µM [1] is reported as 56.9%, the viability at 10 µM [2, 13] is reported as 79.1% and the viability at 10 µM [3, 14] is reported as 33.9%. It also gave a viability at 10 µM [4, 15] of 53.6%, a viability at 10 µM [5, 16] of 58.6% and a viability at 10 µM [6, 17] of 106%. For the same compound, the viability at 10 µM [7, 18] was 54.3%, the viability at 10 µM [8, 19] was 88.1% and the viability at 10 µM [9, 20] was 40.9%. The viability at 10 µM [10, 21] was 88.3%, the viability at 10 µM [11, 22] was 100% and the viability at 10 µM [12, 23] was 74.9%.

With CN(C)CCCN1c2ccccc2CCc2ccc(Cl)cc21.Cl [Clomipramine HCl (Anafranil)] the “cell viability (survival rate), LoVo” value [1] was 87.1, the “cell viability (survival rate), H1650” value [2, 24] was 47.5 and the “cell viability (survival rate), A549” value [3, 24] was 69.1. The “cell viability (survival rate), MKN-45” value [4, 24] was 70.5, the “cell viability (survival rate), A375” value [5, 24] was 88.9 and the “cell viability (survival rate), HL-60” value [6, 24] was 82.7. The “cell viability (survival rate), HeLa” value [7, 24] was 167.6, the “cell viability (survival rate), HepG2” value [8, 24] was 115.6 and the “cell viability (survival rate), MCF7” value [9, 24] was 75.7. For the same compound, the “cell viability (survival rate), TSGH” value [10, 24] was 46.2, the “cell viability (survival rate), PC3” value [11, 24] was 75.8 and the “cell viability (survival rate), AGS” value [12, 24] was 60.2.

Work on CC[C@H]1OC(=O)[C@H](C)[C@@H](O[C@H]2C[C@@](C)(OC)[C@@H](O)[C@H](C)O2)[C@H](C)[C@@H](O[C@@H]2O[C@H](C)C[C@H](N(C)C)[C@H]2O)[C@](C)(O)C[C@@H](C)[C@@H]2N[C@@H](COCCOC)O[C@H]([C@H]2C)[C@]1(C)O [Dirithromycin] yielded a viability at 10 µM [1] of 83.7%, a viability at 10 µM [2, 25] of 65.5% and a viability at 10 µM [3, 26] of 64.8%. The viability at 10 µM [4, 27] was 106%, the viability at 10 µM [5, 28] was 83.7% and the viability at 10 µM [6, 29] was 90.2%. The viability at 10 µM [7, 30] was 91.9%, the viability at 10 µM [8, 31] was 90.6% and the viability at 10 µM [9, 32] was 62.6%. It also gave a viability at 10 µM [10, 33] of 77.2%, a viability at 10 µM [11, 34] of 77.1% and a viability at 10 µM [12, 35] of 63.2%.

With Clc1ccc(CSC(Cn2ccnc2)c2ccc(Cl)cc2Cl)cc1 (stereo not drawn) [Sulconazole Nitrate] the viability at 10 µM [1] was 73.6%, the viability at 10 µM [2, 25] was 63.4% and the viability at 10 µM [3, 26] was 50.7%. It also gave a viability at 10 µM [4, 27] of 53.2%, a viability at 10 µM [5, 28] of 44.9% and a viability at 10 µM [6, 29] of 64.1%. For the same compound, the viability at 10 µM [7, 30] was 62.1%, the viability at 10 µM [8, 31] was 88.2% and the viability at 10 µM [9, 32] was 44.4%. The viability at 10 µM [10, 33] was 55%, the viability at 10 µM [11, 34] was 65.7% and the viability at 10 µM [12, 35] was 83.1%.

Compound CCC[C@@H]1C[C@@H](C(=O)N[C@@H]([C@H]2O[C@H](SC)[C@H](OP(=O)(O)O)[C@@H](O)[C@H]2O)[C@H](C)Cl)N(C)C1 [Clindamycin phosphate] has a viability at 10 µM [1] of 44.4%, a viability at 10 µM [2, 25] of 87% and a viability at 10 µM [3, 26] of 31%. The viability at 10 µM [4, 27] was 85.6%, the viability at 10 µM [5, 28] was 81.3% and the viability at 10 µM [6, 29] was 110%. It also gave a viability at 10 µM [7, 30] of 61.4%, a viability at 10 µM [8, 31] of 90.2% and a viability at 10 µM [9, 32] of 38.3%. For the same compound, the viability at 10 µM [10, 33] was 79.6%, the viability at 10 µM [11, 34] was 40% and the viability at 10 µM [12, 35] was 91.6%.

CN(C/C=C/C#CC(C)(C)C)Cc1cccc2ccccc12.Cl [Terbinafine HCl (Lamisil)] was tested, and the “cell viability (survival rate), LoVo” value [1] was 71.4, the “cell viability (survival rate), H1650” value [2, 24] was 40.6 and the “cell viability (survival rate), A549” value [3, 24] was 52.3. The “cell viability (survival rate), MKN-45” value [4, 24] was 81.8, the “cell viability (survival rate), A375” value [5, 24] was 92.5 and the “cell viability (survival rate), HL-60” value [6, 24] was 86.5. For the same compound, the “cell viability (survival rate), HeLa” value [7, 24] was 75.4, the “cell viability (survival rate), HepG2” value [8, 24] was 91.1 and the “cell viability (survival rate), MCF7” value [9, 24] was 67.7. The “cell viability (survival rate), TSGH” value [10, 24] was 50.6, the “cell viability (survival rate), PC3” value [11, 24] was 70.8 and the “cell viability (survival rate), AGS” value [12, 24] was 90.6.
